Read-outs that look alike come from different tables or passages of the source.
How the values were obtained:
Assay type in all cases: in vivo
aphids, Myzus persicae = assay: Potter tower spray on aphids, knockdown and mortality; conditions: Aphids; for pest or weed control at 0.00625 % strength / pest or weed control at 0.0125 % strength / pest or weed control at 0.025 % strength / pest or weed control at 0.05 % strength / pest or weed control at 0.1 % strength: Myzus persicae, read-out: Average of % corrected affected; for pest or weed control at 0.00625 % strength: 0.00625 % w/v; for pest or weed control at 0.0125 % strength: 0.0125 % w/v; for pest or weed control at 0.025 % strength: 0.025 % w/v; for pest or weed control at 0.05 % strength: 0.05 % w/v; for pest or weed control at 0.1 % strength: 0.1 % w/v
Procedure, shortened: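 Ten aphids (mixed sex and age) per Petri dish on a leaf disc were sprayed by Potter tower with compounds at five concentrations in DMSO. Knockdown and mortality were scored at 24 and 48 hours, five replicates per treatment, alongside carrier-only and untreated controls.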

[1] = test system: red spider mites, Tetranychus urticae; assay: Potter tower spray on red spider mites, knockdown and mortality; conditions: for percentage control: Spider mites
Excerpt: The compounds were screened for insecticidal efficacy against aphids, Myzus persicae, Cabbage moth, Mamestra brassicae, diamond black moths, Plutella xylostella, red spider mites, Tetranychus urticae, whitefly, Trialeurodes vaporariorum, in terms of knockdown and mortality.
Myzus persicae, Cabbage moth, Mamestra brassicae, diamond back moths, Plutella xylostella, red spider mites, Tetranychus urticae, whitefly, Trialeurodes vaporariorum, were obtained from specified laboratory cultures. Mixed sex and age aphids and mites, moth larvae and whitefly scale infested leaves were used in the experiments. Environmental conditions were closely monitored and recorded and were within the optimal range of the target species.
The compounds were screened at a range of five concentrations, diluted in DMSO. Some of the compounds were screened against aphids, whitefly and red spider mites and other compounds were screened against cabbage moth, and diamond black moths. A carrier only and an untreated control will also be conducted. Treatments were applied directly onto the insects within Petri dishes, using a potter tower.
Twenty mites and ten aphids, scales and moth larvae were placed within a Petri dish, lined with a suitable leaf disc on a damp cotton wool pad. Scales were already on leaves. The Petri dishes were then sprayed using a potter tower. The number of knocked down and anthropods were assessed at 24 and 48 hours post treatment. Five replicates were be performed for each treatment, for each species.

[2] = test system: caterpillars, a mixture of Mamestra brassicae and Lacanobia oleracea; assay: Potter tower spray on caterpillars, knockdown and mortality; conditions: Caterpillars, read-out: Average of % corrected affected; for pest or weed control at 0.00625 % strength: 0.00625 % w/v; for pest or weed control at 0.0125 % strength: 0.0125 % w/v; for pest or weed control at 0.025 % strength: 0.025 % w/v; for pest or weed control at 0.05 % strength: 0.05 % w/v; for pest or weed control at 0.1 % strength: 0.1 % w/v
Procedure, shortened: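 Mixed Mamestra brassicae and Lacanobia oleracea larvae (ten per dish, on leaf disc over damp cotton wool) sprayed directly with a Potter tower at five concentrations in DMSO containing 1% v/v Tween 20, alongside carrier-only and untreated controls. Knockdown and mortality scored at 24 and 48 h post treatment; five replicates per treatment.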

[3] = 24 h, 24 hours post application
[4] = 48 h, 48 hours post application

SMILES: CCOC(=O)CN(Cc1ccc(Cl)nc1)C1=CC(=O)OC1 [Compound 3, Ethyl 2-[(6-chloro-3-pyridyl)methyl-(5-oxo-2H-furan-3-yl)amino]acetate]
- percentage control (aphids, Myzus persicae; 25 g/ha, 24 h): E (A percentage control of from 1 to 19 is indicated by the letter E)
- percentage control (aphids, Myzus persicae; 25 g/ha, 48 h): D (A percentage control of from 20 to 39 is indicated by the letter D)
- percentage control (aphids, Myzus persicae; 50 g/ha, 24 h): 0%
- percentage control (aphids, Myzus persicae; 50 g/ha, 48 h): C (A percentage control of from 40 to 59 is indicated by the letter C)
- percentage control (aphids, Myzus persicae; 100 g/ha, 24 h): E (A percentage control of from 1 to 19 is indicated by the letter E)
- percentage control (aphids, Myzus persicae; 100 g/ha, 48 h): B (A percentage control of from 60 to 79 is indicated by the letter B)
- percentage control (aphids, Myzus persicae; 200 g/ha, 24 h): E (A percentage control of from 1 to 19 is indicated by the letter E)
- percentage control (aphids, Myzus persicae; 200 g/ha, 48 h): C (A percentage control of from 40 to 59 is indicated by the letter C)
- percentage control (aphids, Myzus persicae; 400 g/ha, 24 h): E (A percentage control of from 1 to 19 is indicated by the letter E)
- percentage control (aphids, Myzus persicae; 400 g/ha, 48 h): B (A percentage control of from 60 to 79 is indicated by the letter B)
- pest or weed control at 0.00625 % strength (aphids, Myzus persicae; [3]): 1 to 19%
- pest or weed control at 0.0125 % strength (aphids, Myzus persicae; [3]): 1 to 19%
- pest or weed control at 0.025 % strength (aphids, Myzus persicae; [3]): 1 to 19%
- pest or weed control at 0.05 % strength (aphids, Myzus persicae; [3]): 1 to 19%
- pest or weed control at 0.1 % strength (aphids, Myzus persicae; [3]): 1 to 19%
- pest or weed control at 0.00625 % strength (aphids, Myzus persicae; [4]): 1 to 19%
- pest or weed control at 0.0125 % strength (aphids, Myzus persicae; [4]): 1 to 19%
- pest or weed control at 0.025 % strength (aphids, Myzus persicae; [4]): 20 to 39%
- pest or weed control at 0.05 % strength (aphids, Myzus persicae; [4]): 20 to 39%
- pest or weed control at 0.1 % strength (aphids, Myzus persicae; [4]): 20 to 39%
- percentage control ([1]; 25 g/ha, 24 h): B (A percentage control of from 60 to 79 is indicated by the letter B)
- percentage control ([1]; 25 g/ha, 48 h): C (A percentage control of from 40 to 59 is indicated by the letter C)
- percentage control ([1]; 50 g/ha, 24 h): D (A percentage control of from 20 to 39 is indicated by the letter D)
- percentage control ([1]; 50 g/ha, 48 h): D (A percentage control of from 20 to 39 is indicated by the letter D)
- percentage control ([1]; 100 g/ha, 24 h): C (A percentage control of from 40 to 59 is indicated by the letter C)
- percentage control ([1]; 100 g/ha, 48 h): C (A percentage control of from 40 to 59 is indicated by the letter C)
- percentage control ([1]; 200 g/ha, 24 h): D (A percentage control of from 20 to 39 is indicated by the letter D)
- percentage control ([1]; 200 g/ha, 48 h): D (A percentage control of from 20 to 39 is indicated by the letter D)
- percentage control ([1]; 400 g/ha, 24 h): D (A percentage control of from 20 to 39 is indicated by the letter D)
- percentage control ([1]; 400 g/ha, 48 h): D (A percentage control of from 20 to 39 is indicated by the letter D)
- pest or weed control at 0.00625 % strength [2, 3]: 1 to 19%
- pest or weed control at 0.0125 % strength [2, 3]: 1 to 19%
- pest or weed control at 0.025 % strength [2, 3]: 1 to 19%
- pest or weed control at 0.05 % strength [2, 3]: 1 to 19%
- pest or weed control at 0.1 % strength [2, 3]: 1 to 19%
- pest or weed control at 0.00625 % strength [2, 4]: 1 to 19%
- pest or weed control at 0.0125 % strength [2, 4]: 1 to 19%
- pest or weed control at 0.025 % strength [2, 4]: 1 to 19%
- pest or weed control at 0.05 % strength [2, 4]: 1 to 19%
- pest or weed control at 0.1 % strength [2, 4]: 20 to 39%

SMILES: CC(=O)N=S(C)(=O)C(C)c1ccc(C(F)(F)F)nc1 (stereo not drawn) [Compound 12, N-[Methyl-oxo-[1-[6-(trifluoromethyl)-3-pyridyl]ethyl]-λ^6-sulfanylidene]acetamide]
- percentage control (aphids, Myzus persicae; 12.5 g/ha, 24 h): E (A percentage control of from 1 to 19 is indicated by the letter E)
- percentage control (aphids, Myzus persicae; 12.5 g/ha, 48 h): D (A percentage control of from 20 to 39 is indicated by the letter D)
- percentage control (aphids, Myzus persicae; 25 g/ha, 24 h): E (A percentage control of from 1 to 19 is indicated by the letter E)
- percentage control (aphids, Myzus persicae; 25 g/ha, 48 h): D (A percentage control of from 20 to 39 is indicated by the letter D)
- percentage control (aphids, Myzus persicae; 50 g/ha, 24 h): E (A percentage control of from 1 to 19 is indicated by the letter E)
- percentage control (aphids, Myzus persicae; 50 g/ha, 48 h): C (A percentage control of from 40 to 59 is indicated by the letter C)
- percentage control (aphids, Myzus persicae; 100 g/ha, 24 h): E (A percentage control of from 1 to 19 is indicated by the letter E)
- percentage control (aphids, Myzus persicae; 100 g/ha, 48 h): D (A percentage control of from 20 to 39 is indicated by the letter D)
- percentage control (aphids, Myzus persicae; 200 g/ha, 24 h): E (A percentage control of from 1 to 19 is indicated by the letter E)
- percentage control (aphids, Myzus persicae; 200 g/ha, 48 h): D (A percentage control of from 20 to 39 is indicated by the letter D)
- pest or weed control at 0.1 % strength (aphids, Myzus persicae; [3]): 20 to 39%
- pest or weed control at 0.1 % strength (aphids, Myzus persicae; [4]): 40 to 59%
- percentage control ([1]; 12.5 g/ha, 24 h): D (A percentage control of from 20 to 39 is indicated by the letter D)
- percentage control ([1]; 12.5 g/ha, 48 h): D (A percentage control of from 20 to 39 is indicated by the letter D)
- percentage control ([1]; 25 g/ha, 24 h): D (A percentage control of from 20 to 39 is indicated by the letter D)
- percentage control ([1]; 25 g/ha, 48 h): D (A percentage control of from 20 to 39 is indicated by the letter D)
- percentage control ([1]; 50 g/ha, 24 h): C (A percentage control of from 40 to 59 is indicated by the letter C)
- percentage control ([1]; 50 g/ha, 48 h): C (A percentage control of from 40 to 59 is indicated by the letter C)
- percentage control ([1]; 100 g/ha, 24 h): B (A percentage control of from 60 to 79 is indicated by the letter B)
- percentage control ([1]; 100 g/ha, 48 h): B (A percentage control of from 60 to 79 is indicated by the letter B)
- percentage control ([1]; 200 g/ha, 24 h): B (A percentage control of from 60 to 79 is indicated by the letter B)
- percentage control ([1]; 200 g/ha, 48 h): A (A percentage control of from 80 to 100 is indicated by the letter A)
- activity against spider mites compared with the reference compound ([1]; versus flupyradifurone or sulfoxaflor respectively, tables 1 and 3): more active than the reference compound
- pest or weed control at 0.1 % strength [2, 3]: 1 to 19%
- pest or weed control at 0.00625 % strength [2, 4]: 1 to 19%
- pest or weed control at 0.0125 % strength [2, 4]: 1 to 19%
- pest or weed control at 0.025 % strength [2, 4]: 1 to 19%
- pest or weed control at 0.05 % strength [2, 4]: 1 to 19%
- pest or weed control at 0.1 % strength [2, 4]: 1 to 19%

Source: patent US20160212997A1, “AGRICULTURAL CHEMICALS” (REDAG CROP PROTECTION LTD, priority 2013, published 2016)
